In patent US20250136617A1 (The Regents of the University of Colorado, A Body Corporate, priority 2022, published 2025):
pEC50: −log10 of the molar value. Entries after “also recorded” stand apart in the source; their conditions may differ.

What was measured:
Format in all cases: cell-based
CXCR4 [1] = target: T1, CXCR4 (Homo sapiens, UniProt P61073); assay: primary 1536 w β-arrestin recruitment assay (FRET, β-lactamase reporter) in U2OS cells overexpressing CXCR4; set-up: host or cells: U2OS
Description: In an effort to identify CXCR4 activators from the NIH Molecular Library Small Molecule Repository (MLSMR), a primary screening assay was developed to measure β-arrestin recruitment to the activated G-protein coupled receptor by Florescence Resonance Energy Transfer (FRET) in U2OS cells overexpressing the CXCR4 receptor engineered with a β-lactamase (bla) reporter system (Invitrogen cat #K1779). CXCR4-bla cells plated in 1536 w were stimulated in the presence of 10 uM compound concentration. […] Using this approach, 370,620 compounds from the NIH MLSMR were successfully screened and 303 hits were identified (hit rate=0.08%; Z′=0.83). […] These compounds were graded according to activity and structure resulting in 86 compounds that met criteria as potential CXCR4 agonists for further characterization.
Chemical stability, synthetic tractability, solubility and complete dose response and potency criteria led to the prioritization of the 5-aryl-2-cyclopropyl oxazole scaffold, represented by primary hit Compound 2 (Table 1). Early structure-activity relationship was established around the 5-aryl-2-cyclopropyl oxazole core with commercially available analogs with diverse substituents in the sulfonanilide ring of the scaffold. […] Keeping the 2-OMe substituent constant a small set of electron withdrawing and electron rich substituents at the 5-position of the anilide ring were screened (entries 16-19).

CXCR4 [2] = target: T1, CXCR4; assay: cAMP signaling assay, oxazole scaffold (forskolin-induced adenylate cyclase, CHO-K1 CXCR4 cells); set-up: host or cells: CHO-K1; settings: listed as UCUF-728
Description: The CXCR4 receptor is a G-protein coupled receptor (GPCR) coupled to the Gi class, whose primary role is inhibition of adenylate cyclase. The ability of UCUF-728 to induce Gi-mediated cAMP-inhibitory cellular response was tested.
Forskolin at final concentration of […] was added to all wells using the TECAN dispenser. […] PathHunter CHO-K1 CXCR4 cells (DiscoverX, Fremont, CA) were added to compounds at 3,000 cells/well, centrifuged at 1000 rpm for 30 sec and incubated for 30 min at room temperature. DMSO (Sigma Aldrich, St. Louis, MO) was normalization to 0.5%. 5 μL of 4× Eu-cAMP tracer working solution was added to all wells followed by addition of 5 μL of 4× Ulight-anti-cAMP working solution to all wells. Plates were centrifuged at 1000 rpm for 1 min and incubated for 1 hr at room temperature then read using CLARIOstar Plus (BMG LABTECH Inc., Cary, NC) Lance CAMP protocol.

miR-15b = miR-15b expression in murine diabetic and non-diabetic fibroblasts; settings: 24 h, response even at 0.1 μM; listed as UCUF-965
Description: Total RNA was extracted with TRIzol reagent (Invitrogen, Carlsbad, CA, USA) according to the manufacturer's established protocol. RNA was converted into cDNA using the SuperScript First-Strand Synthesis System (Invitrogen, Life Technologies). Primers and probes for mouse miR-15b and miR-29a were acquired from Applied Biosystems TaqMan gene expression assay (Applied Biosystems, Foster City, CA). Quantitative PCR was performed on a BIO-RAD CFX96 according to the manufacturer's instructions. Quantitative values of genes of interest are normalized based on U6. Samples (n=5 per group) were amplified in triplicate and results were averaged for each individual sample. The ΔΔCT method was used to calculate relative gene expression. Results are reported as mean±SD.
The expression of specific micro-RNA levels reported to be crucial in the wound-healing process were measured in order to validate and correlate the in vitro activity of UCUF-965 as a selective CXCR4 receptor modulator to micro-RNA expression. Murine diabetic and non-diabetic fibroblasts were cultured with increasing concentrations of the compound. The cells were incubated for 24 h and then total cellular RNA was isolated to examine the ability of the compound to correct the abnormal expression levels of miR-15b, miR-29a, and miR-146a. […]

CXCR4 [3] = target: T1, CXCR4; assay: Calcium flux (Fluo-4) in CEM-CCRF cells; set-up: host or cells: CEM-CCRF; settings: 10 μM; listed as UCUF-965
Description: Fluo-4 Direct Calcium Assay Kit (Invitrogen; F10472) reagents were prepared according to the supplier guidelines at 2× concentration and allowed to equilibrate to room temperature in the dark. […] Following incubation, 25 μL of cell suspension loaded with Fluo-4 Direct Calcium reagent was dispensed into a 384-well black wall clear-bottom plate (Corning; 3764). […] Calcium flux responses were measured on the BMG LABTECH CLARIOstar Plus (BMG LABTECH Inc., Cary, NC) using the CLARIOstar Plus supplier excitation and emission settings for Fluo-4 (Calcium Saturated). Measurements were conducted using a bottom-read kinetic well-mode with measurements occurring at 0.5 sec intervals for 150 sec and injection occurring at 10.0 sec.

miR-146a = miR-146a expression in murine fibroblasts; settings: 24 h; listed as UCUF-965
Description: The expression of specific micro-RNA levels reported to be crucial in the wound-healing process were measured in order to validate and correlate the in vitro activity of UCUF-965 as a selective CXCR4 receptor modulator to micro-RNA expression. Murine diabetic and non-diabetic fibroblasts were cultured with increasing concentrations of the compound. The cells were incubated for 24 h and then total cellular RNA was isolated to examine the ability of the compound to correct the abnormal expression levels of miR-15b, miR-29a, and miR-146a. The effect of UCUF-965 on expression of miR-15b, which inhibits angiogenesis and wound repair was examined.

T1 sequence (P61073 whole entry): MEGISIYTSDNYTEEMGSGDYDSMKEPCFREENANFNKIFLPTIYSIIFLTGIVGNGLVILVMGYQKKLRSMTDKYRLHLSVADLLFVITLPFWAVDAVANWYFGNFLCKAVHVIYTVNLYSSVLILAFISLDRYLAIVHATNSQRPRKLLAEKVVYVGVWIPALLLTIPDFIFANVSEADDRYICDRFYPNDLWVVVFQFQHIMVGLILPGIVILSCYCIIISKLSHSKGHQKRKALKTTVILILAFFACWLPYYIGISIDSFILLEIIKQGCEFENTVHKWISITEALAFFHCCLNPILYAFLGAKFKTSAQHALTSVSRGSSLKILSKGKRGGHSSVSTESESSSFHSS

| pEC50 (CXCR4 [1]; 1536 w screening platform) | CXCR4 b-arrestin Emax (%) (CXCR4 [1]; 1536 w, normalized to SDF-1α) | Compound | cAMP signaling / forskolin-induced adenylate cyclase (CXCR4 [2]) | miR-15b expression (miR-15b) | calcium flux activity (CXCR4 [3]) | miR-146a expression (miR-146a) |
| --- | --- | --- | --- | --- | --- | --- |
| 5.96 | 60 | COc1ccc(OC)c(NS(=O)(=O)c2ccc(-c3cnc(C4CC4)o3)cc2)c1 [Oxazole Entry 19, 4-(2-Cyclopropyloxazol-5-yl)-N-(2,5-dimethoxyphenyl)benzenesulfonamide] | did not inhibit forskolin-induced adenylate cyclase; also recorded: does not show dose-dependent activity | – | – | – |
| – | – | CCOc1ccccc1-c1nnc2n1N=C(c1ccc(N3CCCC3)cc1)CS2 [Thiadiazine Entry 23, 3-(2-ethoxyphenyl)-6-(4-(pyrrolidin-1-yl)phenyl)-7H-[1,2,4]triazolo[3,4-b][1,3,4]thiadiazine] | – | decreased the expression of miR-15b; also recorded: suppression of miR15b | induce CXCR4-mediated calcium flux | increase of miR-146a levels; also recorded: induction of miR146a |
